The values below come from patent publication US11535599B2, “Benzisoxazole derivative” (Sumitomo Pharma Co., Ltd., priority 2020, dated 2022).

Assay [1] has as its system tacrine-induced Parkinson's disease tremor model. In words: Anti-tremor effect in tacrine-induced Parkinson's disease tremor model. The format is in vivo, rat. The note with it: Example 1 10-100 mg/kg, Example 13 3-100 mg/kg oral; tacrine 2.5 mg/kg i.p.; counted 10 minutes. The source says: One of the causes of tremor in Parkinson's disease is thought to be a decrease of intracerebral dopamine content, said decrease can hyper-activate the cholinergic nervous system in a counteractive manner to cause the symptom. In the present model, an acetylcholinesterase inhibitor activates the cholinergic nervous system, which breaks down the balance between intracerebral dopamine and acetylcholine to initiate a tremor symptom. Thus, the model is well known as a drug-induced model suffering from tremor in Parkinson's disease. With the present model, the effect of the present compound for inhibiting the tremor in Parkinson's disease was evaluated.
In the present test, male Slc: SD rats (Japan SLC, Inc.) were used. The present compound (Example 1 (10 mg/kg, 30 mg/kg, or 100 mg/kg), Example 13 (3 mg/kg, 10 mg/kg, 30 mg/kg, or 100 mg/kg)) was orally administered to the rat. One hour later, tacrine (2.5 mg/kg) was intraperitoneally administered to the rat. Ten minutes after the administration of tacrine, the number of tremulous jaw movements was counted for 10 minutes.

Another assay deals with Rat striatum MAOB (Rattus norvegicus (Rat), UniProt P19643). In words: Activity for inhibiting monoamine oxidase B (MAOB). The format is biochemical. The conditions noted are these: [14C] β-PEA substrate; read-out: Rat striatum MAOB IC50. On the procedure:
MAOB is an enzyme involved in oxidative de-amino acid reaction of an endogenous monoamine neurotransmitter such as dopamine. […] The effect of the present compounds for inhibiting MAOB in rat striatum and simian striatum was tested.
Mitochondria⋅synaptosome fraction containing MAOB was prepared according to the following procedure. To striata of male Slc: Wistar rat (Japan SLC, Inc.) or male cynomolgus monkey (HAMRI CO., LTD.) was added 0.32 mol/L aqueous sucrose by 10 mL per 1 gram as wet weight of the tissue, and the mixture was homogenized. The homogenate was centrifuged at 4° C. at 1,000 g for 10 minutes, and the obtained supernatant was centrifuged again at 4° C. at 17,200 g for 20 minutes. To the obtained precipitate was added a prepared buffer solution (10 mmol/L Tris-HCl buffer solution (pH 7.4), 0.25 mol/L aqueous sucrose, 0.5 mmol/L EDTA-2K) by 10 mL per 1 gram as wet weight of the original tissue, and the mixture was centrifuged again at 4° C. at 17,200 g for 20 minutes. To the obtained precipitate was added the prepared buffer solution by 40 mL per 1 gram as wet weight of the original tissue. The mixture was suspended to be used as an enzyme homogenate solution.
As a substance to be degraded by MAOB, ^14C-labeled β-phenylethylamine ([^14C] β-PEA) was used. [^14C] β-PEA and the present compound solution diluted to each concentration were incubated with the enzyme homogenate solution at 37° C. for a given period, and then the reaction was stopped by adding 3 mol/L cold HCl thereto. The reaction product was extracted with a mixture of water-saturated toluene and ethyl acetate (1:1). The supernatant organic layer was separated, a liquid scintillation cocktail (ACSII, GE Healthcare) was added to the separated organic layer, and the radioactivity was measured with a liquid scintillation counter (TRI-CARB 3100TR, Packard). The IC50 value of each compound was determined based on two parameter logistic model with the inhibitory data of each concentration, said data were obtained from plural trials.

Another assay has as its target human CA-II (Homo sapiens (Human), UniProt P00918). In words: Activity for inhibiting carbonic anhydrase (CA). The format is biochemical. The conditions noted are these: 4-nitrophenyl acetate substrate. The method, then: CA is a zinc metalloenzyme family which catalyzes reversible hydration between carbon dioxide, and bicarbonate and proton.
As a substance for decomposition by CA-II, 4-nitrophenyl acetate was used herein. 4-Nitrophenyl acetate is […] with CA-II to produce 4-nitrophenol. […] To the diluted solution were added […] (final concentration: 5 mmol/L) and the present compound of each concentration, and the mixture was incubated at 37° C. under shading for 30 minutes. […] The IC50 of the compound was obtained through the two-parameter logistic model with the inhibitory rate data in each concentration which was obtained from plural trials.

For another assay, the target named is human Cav3.3 (Homo sapiens (Human), UniProt Q9P0X4). In words: T-type calcium channel inhibitory activity, whole-cell patch-clamp with HEK293 cell. The format is cell-based. The note with it: for IC50: dose-reactive test, read-out: Cav3.3 IC50 (parenthesized). On the procedure:
(§1) The inhibitory activity of the present compounds for T-type calcium channel was measured by whole-cell patch-clamp method with HEK293 cell (vendor of HEK 293 cell: ATCC, Manassas, Va., USA, builder of expressing cell: ChanTest Corporation., Cleveland, Ohio, USA), in which human Cav3.1, human Cav3.2, or human Cav3.3 is expressed. The culture medium used for HEK293 cell was prepared by adding fetal bovine serum (10%), sodium penicillin G (100 U/mL), streptomycin sulfate (100 μg/mL), and G418 (500 μg/mL) to a mixture medium of Dulbecco's modified Eagle's medium/Ham's F-12 medium. The whole-cell current was evaluated with IonWorks Barracuda system and Population Patch Clamp (both are provided by Molecular Device Corporation, Union City, Calif., USA). The extracellular recording solution used during the recording was Hanks' balanced salt solution. The internal recording solution used herein was 50 mmol/L CsCl, 90 mmol/L CsF, 5 mmol/L MgCl2, 1 mmol/L glycol ether diamine tetraacetic acid (EGTA), and 10 mmol/L 4-(2-hydroxyethyl)piperazine-1-ethanesulfonic acid (HEPES (pH 7.2). The holding voltage was held at −90 mV, then changed to −65 mV. 60 seconds later, −20 mV pulse was added thereto for 200 millisecond to activate the channel on plasma membrane and generate calcium current. The calcium current was recorded with an amplifier of IonWorks Barracuda system, and analyzed with a program of the system (Version 2.0.2). The record of the calcium current was obtained twice, before and after the addition of the compound. In the measurement after adding the compound, the cells were exposed to the recording solution containing the compound for more than 5 minutes and then the current was measured. In the analyses, the ratio of current readout after the compound addition per current readout before the compound addition was calculated, the calculated value was subtracted from one, and the obtained value was converted to percentage. […] The value obtained from each compound was canonicalized based on the two ends of values to obtain each inhibitory rate. The positive control compound used herein was TTA-A2 which is known as T-type calcium channel inhibitor. IC50 value was calculated with Hill equation.
(§2) Each inhibitory rate (%) against T-type calcium channel at the evaluation concentration of the present compound (600 μmol/L) is shown in Table 12, in which the parenthesized values are IC50 values (μmol/L)) calculated from the dose-reactive test.

For a further assay, the target named is human Cav3.2 (Homo sapiens (Human), UniProt O95180). The assay is described as above. The class given is cell-based. The conditions noted are these: for IC50: dose-reactive test, read-out: Cav3.2 IC50 (parenthesized). On the procedure:
as §1, §2

For the next assay, the target named is human Cav3.1 (Homo sapiens (Human), UniProt O43497). The description is as above. The format is cell-based. The note with it: for IC50: dose-reactive test, read-out: Cav3.1 IC50 (parenthesized). The method, then:
as §1, §2

Chain of human Cav3.2 (O95180 whole entry): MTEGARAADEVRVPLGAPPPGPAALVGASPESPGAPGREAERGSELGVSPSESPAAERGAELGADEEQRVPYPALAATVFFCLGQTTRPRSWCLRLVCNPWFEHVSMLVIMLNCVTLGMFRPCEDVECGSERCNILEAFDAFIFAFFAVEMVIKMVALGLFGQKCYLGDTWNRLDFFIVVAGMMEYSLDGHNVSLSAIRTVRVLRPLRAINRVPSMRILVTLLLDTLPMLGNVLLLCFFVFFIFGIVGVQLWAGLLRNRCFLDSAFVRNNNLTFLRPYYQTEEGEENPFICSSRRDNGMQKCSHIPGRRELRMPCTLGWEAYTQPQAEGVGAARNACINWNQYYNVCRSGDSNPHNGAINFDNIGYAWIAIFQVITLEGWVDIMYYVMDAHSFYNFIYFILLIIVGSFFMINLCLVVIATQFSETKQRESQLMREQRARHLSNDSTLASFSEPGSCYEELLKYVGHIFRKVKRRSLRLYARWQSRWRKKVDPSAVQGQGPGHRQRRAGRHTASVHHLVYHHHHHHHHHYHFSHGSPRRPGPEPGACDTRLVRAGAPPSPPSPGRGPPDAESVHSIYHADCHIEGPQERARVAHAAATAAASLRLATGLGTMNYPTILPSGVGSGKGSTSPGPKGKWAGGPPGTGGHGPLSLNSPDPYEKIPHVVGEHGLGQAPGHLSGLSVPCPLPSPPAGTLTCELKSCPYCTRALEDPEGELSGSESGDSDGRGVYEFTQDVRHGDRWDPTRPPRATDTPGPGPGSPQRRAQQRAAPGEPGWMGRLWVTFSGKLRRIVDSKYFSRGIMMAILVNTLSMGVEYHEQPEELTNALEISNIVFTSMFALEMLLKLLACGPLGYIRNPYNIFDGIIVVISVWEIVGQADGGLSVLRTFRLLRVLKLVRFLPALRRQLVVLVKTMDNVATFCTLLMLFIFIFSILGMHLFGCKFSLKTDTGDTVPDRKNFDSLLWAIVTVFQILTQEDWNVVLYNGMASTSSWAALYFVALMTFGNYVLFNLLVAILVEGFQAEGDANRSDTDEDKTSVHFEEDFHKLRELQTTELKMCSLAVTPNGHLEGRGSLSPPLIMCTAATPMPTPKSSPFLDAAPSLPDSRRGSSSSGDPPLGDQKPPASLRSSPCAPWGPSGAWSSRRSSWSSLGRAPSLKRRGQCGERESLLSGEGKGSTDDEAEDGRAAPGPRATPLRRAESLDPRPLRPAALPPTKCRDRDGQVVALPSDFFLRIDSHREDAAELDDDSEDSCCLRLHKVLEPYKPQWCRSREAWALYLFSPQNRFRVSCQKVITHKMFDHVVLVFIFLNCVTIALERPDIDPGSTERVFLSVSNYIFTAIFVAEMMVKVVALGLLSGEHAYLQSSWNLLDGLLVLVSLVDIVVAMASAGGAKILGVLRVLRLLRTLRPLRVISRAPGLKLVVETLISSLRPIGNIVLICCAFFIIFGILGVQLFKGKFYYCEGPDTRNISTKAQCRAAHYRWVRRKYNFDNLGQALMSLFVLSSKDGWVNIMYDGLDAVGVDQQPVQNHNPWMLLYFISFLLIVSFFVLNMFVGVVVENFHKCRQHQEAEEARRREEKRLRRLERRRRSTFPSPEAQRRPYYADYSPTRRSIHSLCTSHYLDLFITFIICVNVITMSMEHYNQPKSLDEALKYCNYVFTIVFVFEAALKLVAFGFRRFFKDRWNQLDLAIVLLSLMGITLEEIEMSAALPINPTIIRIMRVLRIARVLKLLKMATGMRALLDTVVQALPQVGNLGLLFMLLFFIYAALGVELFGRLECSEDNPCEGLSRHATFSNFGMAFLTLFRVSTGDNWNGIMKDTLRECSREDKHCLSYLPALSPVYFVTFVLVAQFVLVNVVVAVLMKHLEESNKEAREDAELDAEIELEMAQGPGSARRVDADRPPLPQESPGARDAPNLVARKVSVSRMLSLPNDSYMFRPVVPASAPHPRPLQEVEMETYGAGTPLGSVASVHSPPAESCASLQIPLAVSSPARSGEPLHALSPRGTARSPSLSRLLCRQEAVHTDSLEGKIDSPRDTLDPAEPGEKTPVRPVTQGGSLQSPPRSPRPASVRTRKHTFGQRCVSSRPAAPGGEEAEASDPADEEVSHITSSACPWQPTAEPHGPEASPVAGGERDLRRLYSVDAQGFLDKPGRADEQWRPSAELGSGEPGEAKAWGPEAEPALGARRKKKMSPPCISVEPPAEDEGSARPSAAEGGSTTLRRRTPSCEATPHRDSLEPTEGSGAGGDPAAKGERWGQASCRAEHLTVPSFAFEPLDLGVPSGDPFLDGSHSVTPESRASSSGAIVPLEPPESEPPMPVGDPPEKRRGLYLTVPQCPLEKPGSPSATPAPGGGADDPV
Chain of human Cav3.3 (Q9P0X4 whole entry): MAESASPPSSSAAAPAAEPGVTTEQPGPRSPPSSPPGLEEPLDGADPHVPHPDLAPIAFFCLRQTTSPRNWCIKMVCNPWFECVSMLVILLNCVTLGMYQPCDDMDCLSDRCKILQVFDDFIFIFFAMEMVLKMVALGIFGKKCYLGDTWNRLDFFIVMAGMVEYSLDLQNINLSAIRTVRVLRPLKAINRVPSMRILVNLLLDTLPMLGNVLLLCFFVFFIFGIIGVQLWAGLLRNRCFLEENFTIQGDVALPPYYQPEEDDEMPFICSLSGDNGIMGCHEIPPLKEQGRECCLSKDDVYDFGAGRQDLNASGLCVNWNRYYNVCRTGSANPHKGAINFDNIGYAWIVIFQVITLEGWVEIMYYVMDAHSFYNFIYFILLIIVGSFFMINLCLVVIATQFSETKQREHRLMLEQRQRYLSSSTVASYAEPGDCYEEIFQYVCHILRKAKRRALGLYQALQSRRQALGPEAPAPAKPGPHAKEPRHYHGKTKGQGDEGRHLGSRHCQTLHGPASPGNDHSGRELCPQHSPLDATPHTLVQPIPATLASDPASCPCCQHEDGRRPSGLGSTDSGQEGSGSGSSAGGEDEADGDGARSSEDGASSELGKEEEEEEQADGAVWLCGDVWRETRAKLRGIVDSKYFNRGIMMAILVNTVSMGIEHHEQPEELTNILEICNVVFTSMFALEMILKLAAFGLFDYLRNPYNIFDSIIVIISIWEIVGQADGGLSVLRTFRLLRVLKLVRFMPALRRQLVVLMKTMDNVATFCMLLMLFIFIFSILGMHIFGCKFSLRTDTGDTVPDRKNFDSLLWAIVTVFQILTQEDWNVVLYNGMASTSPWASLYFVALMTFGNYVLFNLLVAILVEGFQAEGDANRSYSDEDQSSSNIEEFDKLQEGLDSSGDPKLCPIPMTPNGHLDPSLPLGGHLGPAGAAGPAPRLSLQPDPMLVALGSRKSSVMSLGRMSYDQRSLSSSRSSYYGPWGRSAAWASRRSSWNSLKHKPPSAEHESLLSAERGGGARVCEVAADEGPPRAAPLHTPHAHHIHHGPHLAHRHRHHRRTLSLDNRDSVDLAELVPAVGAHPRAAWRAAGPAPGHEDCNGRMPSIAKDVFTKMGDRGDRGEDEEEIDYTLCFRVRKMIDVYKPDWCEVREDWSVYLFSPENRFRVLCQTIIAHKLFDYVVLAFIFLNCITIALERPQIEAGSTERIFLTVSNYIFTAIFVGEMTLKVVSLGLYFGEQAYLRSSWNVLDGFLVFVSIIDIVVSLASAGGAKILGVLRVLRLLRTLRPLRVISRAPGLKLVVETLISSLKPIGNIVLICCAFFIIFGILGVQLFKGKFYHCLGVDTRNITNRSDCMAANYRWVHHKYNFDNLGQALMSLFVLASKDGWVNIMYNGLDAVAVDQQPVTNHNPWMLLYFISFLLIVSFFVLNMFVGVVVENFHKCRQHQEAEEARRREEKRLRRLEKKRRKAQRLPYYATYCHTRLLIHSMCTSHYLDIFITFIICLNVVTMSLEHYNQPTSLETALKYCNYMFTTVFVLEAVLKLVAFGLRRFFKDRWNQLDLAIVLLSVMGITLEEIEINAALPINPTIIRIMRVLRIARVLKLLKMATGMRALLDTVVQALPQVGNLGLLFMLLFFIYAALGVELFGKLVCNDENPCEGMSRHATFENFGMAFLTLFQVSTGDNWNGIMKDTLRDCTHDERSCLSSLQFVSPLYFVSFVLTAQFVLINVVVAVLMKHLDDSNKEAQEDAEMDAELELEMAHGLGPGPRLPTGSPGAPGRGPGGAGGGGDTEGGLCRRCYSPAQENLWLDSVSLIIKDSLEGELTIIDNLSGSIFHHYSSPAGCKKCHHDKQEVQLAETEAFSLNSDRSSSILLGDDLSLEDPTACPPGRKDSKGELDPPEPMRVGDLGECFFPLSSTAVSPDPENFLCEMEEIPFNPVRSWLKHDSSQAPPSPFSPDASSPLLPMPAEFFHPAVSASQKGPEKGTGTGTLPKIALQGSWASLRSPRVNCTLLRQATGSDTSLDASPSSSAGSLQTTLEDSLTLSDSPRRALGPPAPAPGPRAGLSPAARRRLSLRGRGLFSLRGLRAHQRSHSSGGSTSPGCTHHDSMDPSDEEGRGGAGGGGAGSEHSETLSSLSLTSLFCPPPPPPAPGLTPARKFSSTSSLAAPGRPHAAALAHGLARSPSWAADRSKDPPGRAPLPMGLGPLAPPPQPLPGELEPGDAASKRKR
Chain of Rat striatum MAOB (P19643 whole entry): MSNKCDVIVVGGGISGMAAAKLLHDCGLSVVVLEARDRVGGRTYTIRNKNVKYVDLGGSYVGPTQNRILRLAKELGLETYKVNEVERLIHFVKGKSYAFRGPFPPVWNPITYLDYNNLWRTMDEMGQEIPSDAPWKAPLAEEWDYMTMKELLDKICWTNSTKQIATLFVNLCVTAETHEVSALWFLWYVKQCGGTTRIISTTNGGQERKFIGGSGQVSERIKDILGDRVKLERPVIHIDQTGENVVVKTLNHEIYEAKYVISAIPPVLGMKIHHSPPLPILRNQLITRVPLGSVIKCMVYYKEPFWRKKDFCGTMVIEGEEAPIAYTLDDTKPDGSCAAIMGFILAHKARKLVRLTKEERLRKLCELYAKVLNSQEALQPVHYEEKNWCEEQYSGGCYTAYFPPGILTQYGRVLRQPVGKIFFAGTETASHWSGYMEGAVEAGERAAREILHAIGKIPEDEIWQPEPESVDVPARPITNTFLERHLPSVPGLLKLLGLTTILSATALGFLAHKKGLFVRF

For the compound `CC(c1noc2ccccc12)S(N)(=O)=O` (stereo not drawn) [Example 1, 1-(Benzo[d]isoxazol-3-yl)ethane-1-sulfonamide], the “number of tremulous jaw movements” value in assay [1] is given as “significantly decreased the number of tremulous jaw movements per unit time”. Besides, the IC50 came to 349 µM on Rat striatum MAOB; 26.5 µM on human CA-II; 922 µM on human Cav3.3; 848 µM at human Cav3.2; 449 µM at human Cav3.1. The “Cav3.3 % inhibitory rate” value at human Cav3.3 (600 μmol/L) amounted to 30.7%. The “Cav3.2 % inhibitory rate” value on human Cav3.2 (600 μmol/L) was found to be 33.0%. The “Cav3.1 % inhibitory rate” value at human Cav3.1 (600 μmol/L) is reported as 46.0%.
Consider `C[C@H](c1noc2ccccc12)S(N)(=O)=O` [Example 13, (1R)-1-(1,2-benzoxazol-3-yl)ethane-1-sulfonamide], for which the “number of tremulous jaw movements” value in assay [1] was “significantly decreased the number of tremulous jaw movements per unit time”. Besides, the IC50 on Rat striatum MAOB was greater than 600 µM; against human CA-II, 18.2 µM; on human Cav3.3, 746 µM; at human Cav3.2, 713 µM; at human Cav3.1, 465 µM. Besides, the inhibition at 600 µM on human Cav3.3 (HEK293, 600 μmol/L, read-out: Cav3.3 % inhibitory rate) is 39.9%; at human Cav3.2 (HEK293, 600 μmol/L, read-out: Cav3.2 % inhibitory rate) it was 42.6%; at human Cav3.1 (HEK293, 600 μmol/L, read-out: Cav3.1 % inhibitory rate), 50.9%.
